Test results published in US11479804B1 (priority 2010, dated 2022).
Entries after “also recorded” stand apart in the source; their conditions may differ.

Columns and labels:
[1] = molecular target: T1, acetylcholinesterase (Homo sapiens, UniProt P22303); assay type: biochemical
[2] = molecular target: T1, acetylcholinesterase; test: Acetylcholinesterase assay with malaoxon in complex samples (apple juice, whole milk, soil) using GEMBE; assay type: biochemical; details: for LOD in filtered apple juice: filtered apple juice (10× dilution); for LOD in soil: soil added as a slurry to the sample reservoir; for LOD in whole milk: whole milk (10× dilution)
Procedure: (§1) Assay Conditions in Apple Juice. A running buffer was prepared consisting of 4-(2-hydroxyethyl)-1-piperazineethanesulfonic acid, i.e. HEPES, at a concentration of ˜100 mM and 2-[Bis(2-hydroxyethyl)amino]-2-(hydroxymethyl)-1,3-propanediol, i.e. BIS-TRIS, at a concentration of ˜100 mM. The running buffer was prepared at pH ˜7.1. EOTrol™ HR (Target Discovery, Palo Alto, Calif.) was added to the run buffer as a dynamic coating to reverse the direction of EOF at a concentration of 1% (by volume).
(§2) Prior to reaction, the surface of a polyoxymethylene sample reservoir (Delrin, DuPont, Wilmington, Del.) was passivated with bovine serum albumin (˜2 mg/mL). A sample containing malaoxon (˜1 mM) in filtered apple juice (10× dilution) was added to the sample reservoir. Acetylcholine (˜500 μM) and acetylcholinesterase (˜10.4 nM) were added to the sample reservoir and were allowed to incubate for ˜5 min.
as §1, with “Whole Milk.” for “Apple Juice.”
as §2, with “(2” for “(˜2”, “whole milk (4% milk fat, Giant Food) at a dilution of 10×” for “filtered apple juice (10× dilution)”, “minutes.” for “min.”
as §1, with “Soil.” for “Apple Juice.”
Prior to reaction, the surface of a polyoxymethylene sample reservoir (Delrin, DuPont, Wilmington, Del.) was passivated with bovine serum albumin (2 mg/mL). A sample containing malaoxon (˜1 mM) in soil was added as a slurry to the sample reservoir. Acetylcholine (˜500 μM) and acetylcholinesterase (˜10.4 nM) were added to the sample reservoir and were allowed to incubate for ˜5 min.
Separation of Acetylcholine and Choline Using Gradient Elution Moving Boundary Electrophoresis. The reaction mixtures were separately introduced into the inlet end of the separation channel of a GEMBE device, wherein a voltage of ˜−2000V was applied on the waste chamber. During the GEMBE separation, the pressure applied to the run buffer reservoir was varied from about 6,000 Pa to about −8,000 Pa at a rate of −300 Pa/s. The concentration of choline was detected and quantified.

[3] = acetylcholine ~500 μM, acetylcholinesterase ~10.4 nM

T1 sequence (P22303 32-614): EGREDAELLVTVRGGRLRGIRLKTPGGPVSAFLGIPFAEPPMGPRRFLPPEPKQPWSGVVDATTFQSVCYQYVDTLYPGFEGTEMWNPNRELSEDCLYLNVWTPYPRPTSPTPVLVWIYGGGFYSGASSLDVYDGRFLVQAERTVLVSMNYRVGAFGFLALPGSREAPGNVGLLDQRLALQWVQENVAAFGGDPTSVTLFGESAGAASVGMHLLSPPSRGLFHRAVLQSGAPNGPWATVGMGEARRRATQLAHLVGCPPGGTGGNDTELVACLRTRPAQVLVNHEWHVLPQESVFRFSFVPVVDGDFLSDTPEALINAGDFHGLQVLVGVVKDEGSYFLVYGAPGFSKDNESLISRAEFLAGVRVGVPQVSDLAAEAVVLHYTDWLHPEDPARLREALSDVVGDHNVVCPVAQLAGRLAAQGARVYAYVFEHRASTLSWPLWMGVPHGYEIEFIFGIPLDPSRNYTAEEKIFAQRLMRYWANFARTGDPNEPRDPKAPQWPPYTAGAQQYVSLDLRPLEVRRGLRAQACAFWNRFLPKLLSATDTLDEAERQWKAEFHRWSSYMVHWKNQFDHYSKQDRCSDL

For `CCOC(=O)CC(SP(=O)(OC)OC)C(=O)OCC` (stereo not drawn) [malaoxon], the “concentration of choline formed (inhibition of acetylcholinesterase)” value [1] was “a decrease in the concentration of choline was observed; also recorded: the concentration of choline does not increase over time”, the “limit of detection (LOD)” value [1] was 87.7 ppb and the “limit of detection (LOD) from conversion rate of acetylcholine to choline” value [1] was ~279 nM. For the same compound, the “LOD in filtered apple juice” value [2] was 85.6 ppb, the “LOD in filtered apple juice” value [2, 3] was ~2.72e-07 M and the LOD in soil [2] was 1.5 ppm. The LOD in soil [2, 3] was ~4.93e-06 M, the “LOD in whole milk” value [2] was 82.0 ppb and the “LOD in whole milk” value [2, 3] was ~2.61e-07 M.
